From article PMC2680961, “Homologous desensitization of signalling by the alpha (α) isoform of the human thromboxane A2 receptor: A specific role for nitric oxide signalling” (Biochimica et Biophysica Acta, 2007)

Columns and labels:
TPα = target: T1, TPα (Homo sapiens, UniProt P21731); experiment: IP3 generation, HEK.TPα cells; type: cell-based; conditions: 1 μM U46619 2 min, washout, restimulation at 60 min
T1 construct: expressed in transfected cells
T1 sequence (P21731 1-343): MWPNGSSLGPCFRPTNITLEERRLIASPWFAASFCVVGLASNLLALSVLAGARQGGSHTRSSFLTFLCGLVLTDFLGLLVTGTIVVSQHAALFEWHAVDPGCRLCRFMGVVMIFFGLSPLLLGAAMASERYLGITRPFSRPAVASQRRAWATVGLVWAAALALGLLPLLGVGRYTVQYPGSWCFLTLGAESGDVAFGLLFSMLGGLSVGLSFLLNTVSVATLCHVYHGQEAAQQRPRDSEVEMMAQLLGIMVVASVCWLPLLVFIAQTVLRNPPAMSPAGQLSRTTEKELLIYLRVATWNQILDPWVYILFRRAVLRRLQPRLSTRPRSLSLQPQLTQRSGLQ
Experimental: (§1) Intracellular IP3 levels were measured as previously described [[33,43]]. Briefly, cells were harvested by scraping, washed twice in ice-cold PBS and resuspended at approximately 2 × 10^6 cells/200 μl in HEPES-buffered saline (HBS; […], 4.7 mM KCl, 2.2 mM CaCl2, 1.2 mM KH2PO4, 11 mM glucose, 15 mM HEPES–NaOH, pH 7.4), 10 mM LiCl (Walsh et al., 2000). […] Thereafter, cells were stimulated with 1 μM U46619 at 37 °C for 2 min. To assess agonist-mediated homologous desensitization, cells (2 × 10^6 cells/200 μl) were stimulated with 1 μM U46619 at 37 °C for 2 min (Primary stimulation); thereafter, cells were collected by centrifugation (900×g, 5 min); were washed once in 200 μl HBS, 10 mM LiCl and finally resuspended in 200 μl HBS, 10 mM LiCl and were left to recover for 60 min; thereafter, cells were re-stimulated with 1 μM U46619 at 37 °C for 2 min (secondary stimulation). All ligands and […] were pre-diluted in HBS such that 50 μl added to 200 μl of cell suspension in HBS gave the desired final concentration. To determine basal IP3 levels, an equivalent volume (50 μl) of the vehicle HBS was added instead of ligand. The level of IP3 produced was quantified by radio competition assay essentially as described. […]

TP^Δ328 = target: T2, TP^Δ328 (Homo sapiens, UniProt P21731); experiment: IP3 generation, HEK.TP^Δ328 cells; type: cell-based; conditions: 1 μM U46619 2 min, washout, restimulation at 60 min
T2 construct: expressed in transfected cells
T2 sequence (P21731 1-328): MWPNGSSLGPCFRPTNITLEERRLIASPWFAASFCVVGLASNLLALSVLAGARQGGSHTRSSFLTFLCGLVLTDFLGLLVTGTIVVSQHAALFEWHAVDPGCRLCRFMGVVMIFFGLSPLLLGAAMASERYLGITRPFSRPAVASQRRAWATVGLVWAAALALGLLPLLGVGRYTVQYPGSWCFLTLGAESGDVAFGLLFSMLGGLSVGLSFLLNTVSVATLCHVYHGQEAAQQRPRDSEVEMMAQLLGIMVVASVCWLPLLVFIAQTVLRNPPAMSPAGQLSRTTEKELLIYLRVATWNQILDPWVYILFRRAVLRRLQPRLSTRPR
Experimental: as §1

CCCCC[C@H](O)/C=C/[C@@H]1[C@@H](C/C=C\CCCC(=O)O)[C@H]2CO[C@@H]1C2 [U46619]
IP3 generation following secondary restimulation after U46619 pre-incubation (TPα): almost completely inhibited IP3 generation
IP3 generation following secondary restimulation after U46619 pre-incubation (TP^Δ328): no significant effect
